The source of these data is patent US6913895B1, “Methods for assaying transglycosylase reactions, and for identifying inhibitors thereof” (Advanced Medicine East, Inc., priority 1999, dated 2005).

Converted amounts (≈) assume the structure as drawn. “Also recorded” adds a separate entry of the source. Read-outs that look alike come from different tables or passages of the source. Marks after values point to notes of the source that are not given here.

Test [1] deals with transglycosylase. Briefly: Transglycosylase assay: peptidoglycan formation from lipid II accumulated in situ in bacterial membranes. It is filed as biochemical, E. coli. To be noted: UDP-MurNAc-tetrapeptide substrate, inhibitors added after Triton X-100 removal, 2 hour incubation.
The next test concerns lipid II formation. Briefly: Lipid II formation assay in bacterial membranes. Format: biochemical, E. coli. The settings on record: for inhibition of lipid II formation: inhibitors added with labeled UDP-GlcNAc and UDP-MurNAc-tetrapeptide (data not shown).
For another test, the system named is E. faecium CL4931 (VanA). It is filed as cell-based.
Another test concerns E. faecalis 29212. Format: cell-based.
The next test has as its system S. aureus 29213. Format: cell-based.
A further test has as its system E. faecium 49624. Format: cell-based.
Test [2] has as its system E. faecalis CL4877 (VanB). It is filed as cell-based.
Test [3] relates to transglycosylase. Description: Transglycosylase assay: peptidoglycan formation from lipid II accumulated in situ in bacterial membranes. It is filed as biochemical, E. coli. To be noted: for inhibition of peptidoglycan formation: inhibitor added after formation of lipid II, Triton X-100 removed, 2 hours incubation, paper chromatography. As to the method:
Reactions were performed in the following buffer: 50 mM Tris (pH=8.0), 42 mM MgAc, 208 mM KCl, and 0.1% Triton X-100®. Each reaction was performed in a 50 ul reaction volume, containing 25 μg French Pressed bacterial membranes, 0.5 nmoles biotinylated UDP-MurNAc-pentapeptide 10% DMSO final concentration (added in conjunction with inhibitor), and 0.5 uM 14C-GlcNAc (≈20,000 CPM). All components except 14C-GlcNAc were pre-incubated together for 10 min at room temperature. The reactions were incubated an additional 1 hour after addition of ^14C-GlcNAc.
To make the reaction volume more manageable, the Triton was removed with the addition of Detergent-Out resin (Geno-Technology, St. Louis, Mo.). After binding up the inhibiting detergent, the reaction was further incubated for 2 hours to allow for transglycosylation to proceed.
The above-described methods of the invention were used to analyze the activity of three inhibitors. The assay included separate samples of tunicamycin, moenomycin, or bacitracin in various concentrations. These inhibitors were added to their respective samples after formation of lipid II, with the subsequent removal of the transglycosylation blocker Triton X-100®. After 2 hours incubation, aliquots of the solubilized products were analyzed by ascending paper chromatography. The amount of lipid II converted into peptidoglycan is represented by the amount of radioactivity measured in CPM remaining at the origin for each reaction.
Compounds TS0517 (chlorobiphenyl-vancomycin), TS0518 (chlorobiphenyl-desleucyl-vancomycin), TS0523, TS1017, and TS30663 were all assayed using the above-described assay, in which the inhibitors were added to their respective samples after formation of lipid II, with the subsequent removal of Triton X-100®. After 2 hours incubation, aliquots of the solubilized products were analyzed by ascending paper chromatography.

Another test deals with peptidoglycan synthesis. To be noted: at 100 μg/ml, A. viridens membranes; cited from earlier work.
Setting [4] is: E. faecium CL4931 (VanA), vancomycin resistant.
The mark [5] stands for this setting: E. faecalis 29212, vancomycin-sensitive.
The mark [6] stands for this setting: S. aureus 29213, vancomycin-sensitive.
Where [7] appears, read: E. faecium 49624, vancomycin-sensitive.
The mark [8] stands for this setting: E. faecalis CL4877 (VanB), vancomycin resistant.

From the text for lipid II formation: In order to determine which stage the inhibitor is affecting, the inhibitor may be added to the reaction mixture while a transglycosylation blocker is present. Accumulation of labeled lipid II may then be measured. […] If lipid II does accumulate, the detergent may be removed, thereby allowing the transglycosylation step to proceed. Labeled peptidoglycan may then be measured.
The methods of the invention as described employ membranes isolated from E. coli as the source of enzymes both for the formation of lipid II, and for the subsequent formation of peptidoglycan.

Consider `C[C@@H]1O[C@@H](O[C@H]2[C@H](Oc3c4cc5cc3Oc3ccc(cc3Cl)[C@@H](O)[C@@H](N)C(=O)N[C@@H](CC(N)=O)C(=O)N[C@H]5C(=O)NC3C(=O)NC(C(=O)N[C@H](C(=O)O)c5cc(O)cc(O)c5-c5cc3ccc5O)[C@H](O)c3ccc(c(Cl)c3)O4)O[C@H](CO)[C@@H](O)[C@@H]2O)C[C@](C)(NCc2ccc(-c3ccc(Cl)cc3)cc2)[C@@H]1O` (mixture of isomers) [CBP-dl-vancomycin, chlorobiphenyl-desleucyl-vancomycin], for which the “inhibition of peptidoglycan synthesis” value in the test on transglycosylase [1] is given as “far more effective”. In addition, the “inhibition of lipid II formation” value in the test with lipid II formation was “no inhibition of lipid II formation”. For the same compound, the minimum inhibitory concentration (MIC) came out at 12.5 µg/mL (≈ 8.21 µM) with E. faecium CL4931 (VanA) (setting [4]); 3.12 µg/mL (≈ 2.05 µM) against E. faecalis 29212 (setting [5]); 3.12 µg/mL (≈ 2.05 µM) with S. aureus 29213 (setting [6]); 1.56 µg/mL (≈ 1.02 µM) against E. faecium 49624 (setting [7]); 25 µg/mL (≈ 16.4 µM) in [2] (setting [8]). In addition, the “inhibition of peptidoglycan formation” value with transglycosylase [3] is “showed inhibition of peptidoglycan formation”.

For `CN[C@H](CC(C)C)C(=O)N[C@H]1C(=O)N[C@@H](CC(N)=O)C(=O)N[C@H]2C(=O)N[C@H]3C(=O)N[C@H](C(=O)N[C@H](C(=O)O)c4cc(O)cc(O)c4-c4cc3ccc4O)[C@H](O)c3ccc(c(Cl)c3)Oc3cc2cc(c3O[C@@H]2O[C@H](CO)[C@@H](O)[C@H](O)[C@H]2O[C@H]2C[C@](C)(NCc3ccc(-c4ccc(Cl)cc4)cc3)[C@H](O)[C@H](C)O2)Oc2ccc(cc2Cl)[C@H]1O` [CBP-vancomycin, chlorobiphenyl-vancomycin], the “inhibition of peptidoglycan synthesis” value in the test on transglycosylase [1] is “far more effective”. The “inhibition of lipid II formation” value with lipid II formation is “no inhibition of lipid II formation”. Moreover, the MIC with E. faecium CL4931 (VanA) (setting [4]) was determined as 12.5 µg/mL (≈ 7.58 µM); in the test on E. faecalis 29212 (setting [5]) it was 0.25 µg/mL (≈ 0.152 µM); in the test with S. aureus 29213 (setting [6]), 0.25 µg/mL (≈ 0.152 µM); against E. faecium 49624 (setting [7]) it was 0.062 µg/mL (≈ 0.0376 µM); in [2] (setting [8]) it was 12.5 µg/mL (≈ 7.58 µM). For the same compound, the “inhibition of peptidoglycan formation” value in the test with transglycosylase [3] is recorded as “showed inhibition of peptidoglycan formation”.

Turning to `CN[C@H](CC(C)C)C(=O)N[C@H]1C(=O)N[C@@H](CC(N)=O)C(=O)N[C@H]2C(=O)N[C@H]3C(=O)N[C@H](C(=O)N[C@H](C(=O)O)c4cc(O)cc(O)c4-c4cc3ccc4O)[C@H](O)c3ccc(c(Cl)c3)Oc3cc2cc(c3O[C@@H]2O[C@H](CO)[C@@H](O)[C@H](O)[C@H]2O[C@H]2C[C@](C)(N)[C@H](O)[C@H](C)O2)Oc2ccc(cc2Cl)[C@H]1O` [Vancomycin, vancomycin], in the test on transglycosylase [1], the “inhibition of peptidoglycan synthesis” value is “only minimal inhibition”. For the same compound, the “inhibition of lipid II formation in vitro” value in the test on lipid II formation (substrate with D-ala-D-ala dipeptide moiety) is reported as “capable of inhibiting the formation of lipid II in vitro”. For the same compound, the MIC in the test on E. faecium CL4931 (VanA) (Enterococcus faecium) is 1250 µg/mL (≈ 863 µM); with E. faecalis 29212 (Enterococcus faecalis, 29212), 3.12 µg/mL (≈ 2.15 µM); against S. aureus 29213 (Staphylococcus aureus, 29213), 1.25 µg/mL (≈ 0.863 µM); against E. faecium 49624 (Enterococcus faecium, 49624), 1.25 µg/mL (≈ 0.863 µM); in test [2] (Enterococcus faecalis), 1250 µg/mL (≈ 863 µM).

As for moenomycin, in the test on peptidoglycan synthesis, the “inhibition of peptidoglycan synthesis” value was less than 35%. For the same compound, the MIC against E. faecium CL4931 (VanA) (setting [4]) was 0.25 µg/mL; against E. faecalis 29212 (setting [5]) it was 0.078 µg/mL; with S. aureus 29213 (setting [6]), 0.05 µg/mL; against E. faecium 49624 (setting [7]), >200^c μg/ml; in test [2] (setting [8]), 0.13 µg/mL. Moreover, in the test with transglycosylase [3] (UDP-MurNAc-pentapeptide or UDP-MurNAc-tetrapeptide), the “potency in E. coli system relative to that measured in Allen et al. using A. viridens” value was 4 orders of magnitude. Also, the “inhibition of peptidoglycan synthesis, UDP-MurNAc-pentapeptide vs UDP-MurNAc-tetrapeptide” value with transglycosylase [3] (comparison of the two precursor substrates) was “equipotent inhibition”. In addition, in the test on transglycosylase [3], the “inhibition of peptidoglycan formation” value is “sensitive”. Besides, the “IC50 / effect compared with assay without transglycosylation blocker” value on transglycosylase [3] (with vs without Triton X-100 blocker) is given as “identical IC50 values; also recorded: substantially the same”.

As to tunicamycin, the “inhibition of peptidoglycan formation” value was “no measurable effect” with transglycosylase [3] and “had no effect” in the test on transglycosylase [3] (listed as tunicamycin).

As a reminder, the MIC is the least concentration at which growth counts as inhibited. A high value points to a less susceptible organism.
